Read-outs that look alike come from different tables or passages of the source.
Tests used:
Septoria tritici = assay: Fungicidal activity: leaf blotch of wheat, one-day protectant and three-day curative tests on wheat plants; assay type: in vivo; conditions: Zymoseptoria tritici
Protocol: Example 16: Evaluation of Fungicidal Activity: Leaf Blotch of Wheat (Mycosphaerella graminicola; anamorph: Septoria tritici; Bayer code SEPTTR)
Wheat plants (variety Yuma) were grown from seed in a greenhouse in 50% mineral soil/50% soil-less Metro mix until the first leaf was fully emerged, with 7-10 seedlings per pot. These plants were inoculated with an aqueous spore suspension of Septoria tritici either prior to or after fungicide treatments. After inoculation the plants were kept in 100% relative humidity (one day in a dark dew chamber followed by two to three days in a lighted dew chamber) to permit spores to germinate and infect the leaf. The plants were then transferred to a greenhouse for disease to develop.
(§1) The following tables present the activity of typical compounds of the present disclosure when evaluated in these experiments. The effectiveness of the test compounds in controlling disease was determined by assessing the severity of disease on treated plants, then converting the severity to percent control based on the level of disease on untreated, inoculated plants.
as §1, with “table presents” for “tables present”

[1] = 24 h, One-Day Protectant (1 DP), 100 ppm, wheat plants (variety Yuma), read-out: SEPTTR 100 PPM 1 DP (% Disease Control rating)
[2] = 72 h, Three-Day Curative (3 DC), 100 ppm, wheat plants (variety Yuma), read-out: SEPTTR 100 PPM 3 DC (% Disease Control rating)
[3] = 24 h, read-out: SEPTTR 100 PPM 1 DP (% Disease Control rating)
[4] = 72 h, read-out: SEPTTR 100 PPM 3 DC (% Disease Control rating)

Row | Structure (SMILES) | pest or weed control at 100 ppm (Septoria tritici; [1]) | pest or weed control at 100 ppm (Septoria tritici; [2]) | melting point | pest or weed control at 100 ppm (Septoria tritici; [3]) | pest or weed control at 100 ppm (Septoria tritici; [4])
1 | C/N=c1\c(F)cn(S(=O)(=O)c2cc(OC)ccc2OC)c(=O)n1C [Compound F11] | 76 to 100% | 76 to 100% | 115 to 117.8 °C |  | 
2 | CCc1ccc(S(=O)(=O)n2cc(F)/c(=N\Cc3ccccc3F)n(C)c2=O)cc1 [Compound F55] | 0 to 25% | 0 to 25% | 140 to 141 °C |  | 
3 | CC(=O)/N=c1\c(F)cn(S(=O)(=O)c2ccc(C(C)C)cc2)c(=O)n1C [Compound F33] | 76 to 100% | 26 to 50% | 165 °C |  | 
4 | COC(=O)/N=c1\c(F)cn(S(=O)(=O)c2ccc(C)cc2)c(=O)n1C [Compound F46] | 0 to 25% | 0 to 25% | 145 to 146 °C |  | 
5 | CC(=O)/N=c1\c(F)cn(S(=O)(=O)c2cc(C)c(Cl)cc2C)c(=O)n1C [Compound F35] | 76 to 100% | 26 to 50% | 173 °C |  | 
6 | CCc1ccc(S(=O)(=O)n2cc(F)/c(=N\C(=O)OC)n(C)c2=O)cc1 [Compound F47] | 0 to 25% | 0 to 25% | 125 to 126 °C |  | 
7 | C/N=c1\c(F)cn(S(=O)(=O)c2cccc(OC)c2)c(=O)n1C [Compound F12] | 76 to 100% | 76 to 100% | 111.4 to 112 °C |  | 
8 | Cc1cccc(S(=O)(=O)n2cc(F)/c(=N\Cc3ccccc3F)n(C)c2=O)c1 [Compound F57] | 0 to 25% | 0 to 25% | 177 to 180 °C |  | 
9 | COC(=O)/N=c1\c(F)cn(S(=O)(=O)c2cccc(C)c2)c(=O)n1C [Compound F49] | 0 to 25% | 0 to 25% | 200 to 201 °C |  | 
10 | CCc1ccc(S(=O)(=O)n2cc(F)/c(=N\C(=O)Oc3ccccc3)n(C)c2=O)cc1 [Compound F40] |  |  | 188 to 190 °C | 0 to 25% | 0 to 25%
11 | C/N=c1\c(F)cn(S(=O)(=O)c2ccccc2OC)c(=O)n1C [Compound F8] | 76 to 100% | 76 to 100% | 204 to 205.4 °C |  | 
12 | Cc1ccc(S(=O)(=O)n2cc(F)/c(=N\Cc3ccccc3F)n(C)c2=O)cc1 [Compound F54] | 0 to 25% | 0 to 25% | 184 to 187 °C |  | 
13 | COC(=O)/N=c1\c(F)cn(S(=O)(=O)c2ccccc2)c(=O)n1C [Compound F45] | 0 to 25% | 0 to 25% | 185 to 186 °C |  | 
14 | COc1ccc(S(=O)(=O)n2cc(F)/c(=N\C(=O)Oc3ccccc3)n(C)c2=O)cc1 [Compound F24, phenyl (5-fluoro-1-((4-methoxyphenyl)sulfonyl)-3-methyl-2-oxo-2,3-dihydropyrimidin-4(1H)-ylidene)carbamate] |  |  | 190 to 193 °C | 0 to 25% | 0 to 25%
15 | CCc1ccc(S(=O)(=O)n2cc(F)/c(=N\C(C)=O)n(C)c2=O)cc1 [Compound F32] | 76 to 100% | 76 to 100% | 158 °C |  | 
16 | COc1ccc(S(=O)(=O)n2cc(F)/c(=N\Cc3ccccc3F)n(C)c2=O)cc1 [Compound F53, 5-fluoro-4-((2-fluorobenzyl)imino)-1-((4-methoxyphenyl)sulfonyl)-3-methyl-3,4-dihydropyrimidin-2(1H)-one] | 0 to 25% | 0 to 25% | 188 to 191 °C |  | 
17 | Cn1c(=O)n(S(=O)(=O)c2cc(Cl)sc2Cl)cc(F)/c1=N\C(=O)Oc1ccccc1 [Compound F44] |  |  | 158 to 159 °C | 76 to 100% | 76 to 100%
18 | COC(=O)/N=c1\c(F)cn(S(=O)(=O)c2cc(Cl)sc2Cl)c(=O)n1C [Compound F51] | 0 to 25% | 0 to 25% | 148 to 149 °C |  | 
19 | Cc1ccc(S(=O)(=O)n2cc(F)/c(=N\C(=O)Oc3ccccc3)n(C)c2=O)cc1 [Compound F39] |  |  | 200 to 202 °C | 26 to 50% | 26 to 50%
20 | C/N=c1\c(F)cn(S(=O)(=O)c2ccccc2)c(=O)n1C [Compound F2] | 76 to 100% | 51 to 75% | 142 to 144 °C |  | 
